The kinase profiling compilation of Christmann-Franck et al. (2016)

Legend:
Experiment in all cases: radiometric filter-binding kinase assay, Kinase HotSpot
Details in all cases: compound 0.5 µM; ATP 10 µM
NEK1 (human) = NEK1 (human) (UniProt Q96PY6)
IKBKB (human) = IKBKB (human) (UniProt O14920)
EPHA2 (human) = EPHA2 (human) (UniProt P29317)
BLK (human) = BLK (human) (UniProt P51451)
MAP3K7 TAB1 (human) = MAP3K7 TAB1 (human) (UniProt O43318+Q15750)
PAK1 (human) = PAK1 (human) (UniProt Q13153)
ACVR1B (human) = ACVR1B (human) (UniProt P36896)
MAPK12 (human) = MAPK12 (human) (UniProt P53778)
KIT (human) = KIT (human) (UniProt P10721)
TEK (human) = TEK (human) (UniProt Q02763)
CDK2 CCNE1 (human) = CDK2 CCNE1 (human) (UniProt P24941+P24864)
EPHA4 (human) = EPHA4 (human) (UniProt P54764)
FER (human) = FER (human) (UniProt P16591)
EPHB4 (human) = EPHB4 (human) (UniProt P54760)
MATK (human) = MATK (human) (UniProt P42679)
NEK4 (human) = NEK4 (human) (UniProt P51957)
ADRBK2 (human) = ADRBK2 (human) (UniProt P35626)
[1] = test system: FLT4 (human), P35916 [Q890H]
CDK1 CCNA2 (human) = CDK1 CCNA2 (human) (UniProt P06493+P20248)
MYLK (human) = MYLK (human) (UniProt Q15746)
RET (human) = RET (human) (UniProt P07949)
CAMK2D (human) = CAMK2D (human) (UniProt Q13557)
DAPK1 (human) = DAPK1 (human) (UniProt P53355)
PIM2 (human) = PIM2 (human) (UniProt Q9P1W9)
HIPK3 (human) = HIPK3 (human) (UniProt Q9H422)
RPS6KA3 KD1 KD2 (human) = RPS6KA3 KD1 KD2 (human) (UniProt P51812)
SLK (human) = SLK (human) (UniProt Q9H2G2)
PRKCG (human) = PRKCG (human) (UniProt P05129)
TEC (human) = TEC (human) (UniProt P42680)
STK39 (human) = STK39 (human) (UniProt Q9UEW8)
MST1R (human) = MST1R (human) (UniProt Q04912)
AKT1 (human) = AKT1 (human) (UniProt P31749)
EPHB3 (human) = EPHB3 (human) (UniProt P54753)
DAPK3 (human) = DAPK3 (human) (UniProt O43293)
BRSK2 (human) = BRSK2 (human) (UniProt Q8IWQ3)
ULK1 (human) = ULK1 (human) (UniProt O75385)
NTRK1 (human) = NTRK1 (human) (UniProt P04629)
RPS6KA6 KD1 KD2 (human) = RPS6KA6 KD1 KD2 (human) (UniProt Q9UK32)
INSR (human) = INSR (human) (UniProt P06213)
FGFR4 (human) = FGFR4 (human) (UniProt P22455)
ROCK2 (human) = ROCK2 (human) (UniProt O75116)
CAMK2G (human) = CAMK2G (human) (UniProt Q13555)

CDK1 CCNA2 (human), sequence (P06493 whole entry, looked up): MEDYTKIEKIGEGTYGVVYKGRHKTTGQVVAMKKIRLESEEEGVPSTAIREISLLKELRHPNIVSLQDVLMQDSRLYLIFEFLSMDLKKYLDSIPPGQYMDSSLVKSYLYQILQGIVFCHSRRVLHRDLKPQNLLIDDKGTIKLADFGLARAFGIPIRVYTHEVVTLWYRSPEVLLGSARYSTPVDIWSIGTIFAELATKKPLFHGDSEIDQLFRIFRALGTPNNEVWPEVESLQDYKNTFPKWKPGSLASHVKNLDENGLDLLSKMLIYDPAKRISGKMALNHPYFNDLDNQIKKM
CDK1 CCNA2 (human), sequence (P20248 whole entry, looked up): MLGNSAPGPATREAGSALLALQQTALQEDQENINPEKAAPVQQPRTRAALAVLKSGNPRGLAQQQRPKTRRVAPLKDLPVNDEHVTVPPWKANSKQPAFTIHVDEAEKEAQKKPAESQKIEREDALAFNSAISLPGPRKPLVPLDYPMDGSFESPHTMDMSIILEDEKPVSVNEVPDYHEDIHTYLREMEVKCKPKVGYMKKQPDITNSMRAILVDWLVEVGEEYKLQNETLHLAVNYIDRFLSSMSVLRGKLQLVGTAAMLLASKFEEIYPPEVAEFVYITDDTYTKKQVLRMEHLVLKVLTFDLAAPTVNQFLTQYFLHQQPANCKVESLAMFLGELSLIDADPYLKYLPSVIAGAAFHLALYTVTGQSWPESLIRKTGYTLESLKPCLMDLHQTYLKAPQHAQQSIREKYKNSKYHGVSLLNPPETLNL
MATK (human), sequence (P42679 whole entry, looked up): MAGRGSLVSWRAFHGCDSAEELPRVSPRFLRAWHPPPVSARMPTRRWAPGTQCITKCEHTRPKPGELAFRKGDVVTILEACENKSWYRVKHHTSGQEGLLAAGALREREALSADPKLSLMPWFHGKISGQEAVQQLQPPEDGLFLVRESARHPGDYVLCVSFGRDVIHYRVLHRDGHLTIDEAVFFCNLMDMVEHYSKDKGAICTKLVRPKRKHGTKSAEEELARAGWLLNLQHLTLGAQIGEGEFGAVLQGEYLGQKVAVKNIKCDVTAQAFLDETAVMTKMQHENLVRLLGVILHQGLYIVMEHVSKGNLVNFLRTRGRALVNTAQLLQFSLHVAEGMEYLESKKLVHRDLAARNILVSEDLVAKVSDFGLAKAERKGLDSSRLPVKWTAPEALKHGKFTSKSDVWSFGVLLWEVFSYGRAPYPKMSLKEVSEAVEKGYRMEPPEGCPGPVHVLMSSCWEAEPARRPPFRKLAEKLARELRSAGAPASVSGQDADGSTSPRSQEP
EPHA4 (human), sequence (P54764 whole entry, looked up): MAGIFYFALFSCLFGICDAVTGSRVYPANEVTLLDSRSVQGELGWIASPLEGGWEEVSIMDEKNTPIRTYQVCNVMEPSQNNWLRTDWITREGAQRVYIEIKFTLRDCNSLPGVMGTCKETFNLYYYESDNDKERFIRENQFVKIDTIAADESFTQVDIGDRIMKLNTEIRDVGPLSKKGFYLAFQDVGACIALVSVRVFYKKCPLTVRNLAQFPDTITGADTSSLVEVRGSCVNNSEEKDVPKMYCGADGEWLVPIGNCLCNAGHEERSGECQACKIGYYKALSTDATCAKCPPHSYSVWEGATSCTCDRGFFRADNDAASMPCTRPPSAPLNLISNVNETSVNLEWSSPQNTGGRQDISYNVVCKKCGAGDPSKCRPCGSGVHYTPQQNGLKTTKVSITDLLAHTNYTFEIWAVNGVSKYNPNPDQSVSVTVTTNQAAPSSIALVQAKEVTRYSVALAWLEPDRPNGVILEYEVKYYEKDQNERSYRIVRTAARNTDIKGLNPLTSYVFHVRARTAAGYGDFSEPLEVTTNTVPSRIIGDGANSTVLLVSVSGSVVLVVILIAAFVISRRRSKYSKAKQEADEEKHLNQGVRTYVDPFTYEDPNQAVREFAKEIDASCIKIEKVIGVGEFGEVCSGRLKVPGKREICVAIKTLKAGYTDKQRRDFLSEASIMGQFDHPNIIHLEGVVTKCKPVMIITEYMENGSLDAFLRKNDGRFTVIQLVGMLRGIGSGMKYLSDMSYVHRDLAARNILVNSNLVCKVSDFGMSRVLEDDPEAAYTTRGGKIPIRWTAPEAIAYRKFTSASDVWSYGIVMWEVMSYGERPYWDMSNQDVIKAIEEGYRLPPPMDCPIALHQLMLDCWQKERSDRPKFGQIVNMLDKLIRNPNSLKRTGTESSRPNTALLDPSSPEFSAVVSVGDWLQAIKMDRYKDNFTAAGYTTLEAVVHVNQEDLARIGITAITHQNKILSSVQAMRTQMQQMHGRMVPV
ROCK2 (human), sequence (O75116 whole entry, looked up): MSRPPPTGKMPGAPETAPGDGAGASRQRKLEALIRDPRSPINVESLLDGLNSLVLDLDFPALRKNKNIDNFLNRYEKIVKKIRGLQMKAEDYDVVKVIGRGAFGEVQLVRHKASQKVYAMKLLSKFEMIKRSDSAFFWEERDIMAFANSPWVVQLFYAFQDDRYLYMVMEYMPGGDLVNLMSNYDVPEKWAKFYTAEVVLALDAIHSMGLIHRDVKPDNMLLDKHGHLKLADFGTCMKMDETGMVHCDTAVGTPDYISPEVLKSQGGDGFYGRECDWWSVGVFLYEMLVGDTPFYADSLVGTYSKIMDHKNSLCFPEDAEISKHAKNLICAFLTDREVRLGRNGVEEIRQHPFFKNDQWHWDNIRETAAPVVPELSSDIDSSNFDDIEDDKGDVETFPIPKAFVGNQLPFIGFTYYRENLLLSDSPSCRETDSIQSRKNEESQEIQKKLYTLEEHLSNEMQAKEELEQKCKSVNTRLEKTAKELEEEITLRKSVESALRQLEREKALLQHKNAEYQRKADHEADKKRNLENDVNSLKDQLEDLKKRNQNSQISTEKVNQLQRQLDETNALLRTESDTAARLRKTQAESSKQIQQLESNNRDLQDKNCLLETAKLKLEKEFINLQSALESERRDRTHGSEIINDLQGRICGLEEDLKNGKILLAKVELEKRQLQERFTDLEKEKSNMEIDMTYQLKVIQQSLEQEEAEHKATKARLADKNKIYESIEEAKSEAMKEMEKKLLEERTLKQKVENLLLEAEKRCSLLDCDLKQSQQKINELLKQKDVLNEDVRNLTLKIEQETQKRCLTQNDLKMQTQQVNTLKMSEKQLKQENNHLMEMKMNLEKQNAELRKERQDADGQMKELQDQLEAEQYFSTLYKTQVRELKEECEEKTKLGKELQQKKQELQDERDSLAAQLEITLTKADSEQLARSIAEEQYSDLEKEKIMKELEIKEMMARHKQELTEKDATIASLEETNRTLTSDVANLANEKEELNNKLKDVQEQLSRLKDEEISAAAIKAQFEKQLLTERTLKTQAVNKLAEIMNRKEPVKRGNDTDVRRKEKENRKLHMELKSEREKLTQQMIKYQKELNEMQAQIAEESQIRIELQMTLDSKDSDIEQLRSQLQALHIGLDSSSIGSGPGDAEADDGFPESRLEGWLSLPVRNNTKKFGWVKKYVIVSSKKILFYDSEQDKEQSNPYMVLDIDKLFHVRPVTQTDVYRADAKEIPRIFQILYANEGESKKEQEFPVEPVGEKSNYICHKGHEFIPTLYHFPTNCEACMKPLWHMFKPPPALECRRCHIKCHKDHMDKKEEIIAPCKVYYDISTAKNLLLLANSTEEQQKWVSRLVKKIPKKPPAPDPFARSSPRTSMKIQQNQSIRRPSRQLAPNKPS
HIPK3 (human), sequence (Q9H422 whole entry, looked up): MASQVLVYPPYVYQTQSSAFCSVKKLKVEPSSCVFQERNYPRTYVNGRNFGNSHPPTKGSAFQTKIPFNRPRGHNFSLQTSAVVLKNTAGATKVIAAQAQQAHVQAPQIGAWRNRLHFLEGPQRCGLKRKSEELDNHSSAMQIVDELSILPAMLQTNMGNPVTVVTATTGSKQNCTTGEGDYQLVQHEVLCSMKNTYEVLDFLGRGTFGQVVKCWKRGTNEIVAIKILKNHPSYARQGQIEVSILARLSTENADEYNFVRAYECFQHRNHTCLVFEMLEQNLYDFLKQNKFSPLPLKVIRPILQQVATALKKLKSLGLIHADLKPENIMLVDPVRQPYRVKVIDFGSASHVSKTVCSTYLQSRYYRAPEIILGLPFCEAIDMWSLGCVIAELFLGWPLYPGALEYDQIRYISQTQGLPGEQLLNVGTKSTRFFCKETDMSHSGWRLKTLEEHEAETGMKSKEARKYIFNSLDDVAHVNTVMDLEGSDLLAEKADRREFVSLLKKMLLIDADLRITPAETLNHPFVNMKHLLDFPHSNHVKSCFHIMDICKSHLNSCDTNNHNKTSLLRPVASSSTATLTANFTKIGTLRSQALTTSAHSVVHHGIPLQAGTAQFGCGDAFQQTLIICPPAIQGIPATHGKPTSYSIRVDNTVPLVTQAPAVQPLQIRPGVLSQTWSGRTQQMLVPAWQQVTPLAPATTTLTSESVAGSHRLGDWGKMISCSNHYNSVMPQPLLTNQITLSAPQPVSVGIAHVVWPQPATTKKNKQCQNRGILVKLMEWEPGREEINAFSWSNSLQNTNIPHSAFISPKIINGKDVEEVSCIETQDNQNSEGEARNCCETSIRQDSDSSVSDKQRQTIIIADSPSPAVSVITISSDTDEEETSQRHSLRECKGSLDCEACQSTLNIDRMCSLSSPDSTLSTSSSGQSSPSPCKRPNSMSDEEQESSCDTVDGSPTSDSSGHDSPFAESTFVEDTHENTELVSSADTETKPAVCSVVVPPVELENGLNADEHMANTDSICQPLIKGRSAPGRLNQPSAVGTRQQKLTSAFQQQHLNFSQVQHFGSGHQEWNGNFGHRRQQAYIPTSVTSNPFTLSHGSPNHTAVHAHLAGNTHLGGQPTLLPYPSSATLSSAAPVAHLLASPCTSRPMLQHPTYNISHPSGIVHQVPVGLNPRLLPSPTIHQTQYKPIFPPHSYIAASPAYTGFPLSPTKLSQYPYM

COc1ccc(S(=O)(=O)N(CCO)c2ccccc2CN(C)C/C=C/c2ccc(Cl)cc2)cc1
residual activity (NEK1 (human)): 104% | residual activity (IKBKB (human)): 98.1% | residual activity (EPHA2 (human)): 104% | residual activity (BLK (human)): 103% | residual activity (MAP3K7 TAB1 (human)): 94.7% | residual activity (PAK1 (human)): 96% | residual activity (ACVR1B (human)): 93.2% | residual activity (MAPK12 (human)): 98.9% | residual activity (KIT (human)): 103% | residual activity (TEK (human)): 105% | residual activity (CDK2 CCNE1 (human)): 94% | residual activity (EPHA4 (human)): 99.2% | residual activity (FER (human)): 97.1% | residual activity (EPHB4 (human)): 104% | residual activity (MATK (human)): 101% | residual activity (NEK4 (human)): 98.7% | residual activity (ADRBK2 (human)): 105% | residual activity [1]: 91% | residual activity (CDK1 CCNA2 (human)): 96.5% | residual activity (MYLK (human)): 98.4% | residual activity (RET (human)): 103% | residual activity (CAMK2D (human)): 91.8% | residual activity (DAPK1 (human)): 120% | residual activity (PIM2 (human)): 99.7% | residual activity (HIPK3 (human)): 104% | residual activity (RPS6KA3 KD1 KD2 (human)): 98% | residual activity (SLK (human)): 103% | residual activity (PRKCG (human)): 95.1% | residual activity (TEC (human)): 101% | residual activity (STK39 (human)): 92.8% | residual activity (MST1R (human)): 95.4% | residual activity (AKT1 (human)): 106% | residual activity (EPHB3 (human)): 92.8% | residual activity (DAPK3 (human)): 101% | residual activity (BRSK2 (human)): 103% | residual activity (ULK1 (human)): 99.7% | residual activity (NTRK1 (human)): 110% | residual activity (RPS6KA6 KD1 KD2 (human)): 102% | residual activity (INSR (human)): 103% | residual activity (FGFR4 (human)): 98.3% | residual activity (ROCK2 (human)): 94.6% | residual activity (CAMK2G (human)): 98.6%

O=C1c2ccccc2-c2nc3nnnn3nc21
residual activity (NEK1 (human)): 46.3% | residual activity (IKBKB (human)): 73.4% | residual activity (EPHA2 (human)): 100% | residual activity (BLK (human)): 109% | residual activity (MAP3K7 TAB1 (human)): 89.9% | residual activity (PAK1 (human)): 96.1% | residual activity (ACVR1B (human)): 113% | residual activity (MAPK12 (human)): 92.5% | residual activity (KIT (human)): 22.2% | residual activity (TEK (human)): 4.27% | residual activity (CDK2 CCNE1 (human)): 80.6% | residual activity (EPHA4 (human)): 61.1% | residual activity (FER (human)): 89.1% | residual activity (EPHB4 (human)): 97.1% | residual activity (MATK (human)): 99.7% | residual activity (NEK4 (human)): 96.1% | residual activity (ADRBK2 (human)): 106% | residual activity [1]: 5.79% | residual activity (CDK1 CCNA2 (human)): 48.9% | residual activity (MYLK (human)): 94.1% | residual activity (RET (human)): 101% | residual activity (CAMK2D (human)): 93% | residual activity (DAPK1 (human)): 92.2% | residual activity (PIM2 (human)): 92.8% | residual activity (HIPK3 (human)): 101% | residual activity (RPS6KA3 KD1 KD2 (human)): 75.1% | residual activity (SLK (human)): 92.4% | residual activity (PRKCG (human)): 59.3% | residual activity (TEC (human)): 2.44% | residual activity (STK39 (human)): 89.2% | residual activity (MST1R (human)): 93.6% | residual activity (AKT1 (human)): 79.7% | residual activity (EPHB3 (human)): 90.2% | residual activity (DAPK3 (human)): 96.2% | residual activity (BRSK2 (human)): 66.7% | residual activity (ULK1 (human)): 107% | residual activity (NTRK1 (human)): 76.6% | residual activity (RPS6KA6 KD1 KD2 (human)): 62.3% | residual activity (INSR (human)): 32.3% | residual activity (FGFR4 (human)): 58% | residual activity (ROCK2 (human)): 81.7% | residual activity (CAMK2G (human)): 91.1%
